As usually defined, the inhibition is the relative decrease from the control value, in per cent. As usually defined, the chromatographic logP is a lipophilicity value derived from retention on a column.

The source of these data is patent US20230192617A1, “AZABICYCLIC(THIO)AMIDES AS FUNGICIDAL COMPOUNDS” (Bayer CropScience Aktiengesellschaft, priority 2020, published 2023).

For data set [1], the system named is Colletotrichum lindemuthianum. The data set is described as follows: B-8. Colletotrichum lindemuthianum in vitro cell test. The data set is classed as cell-based. Particulars: 144 h, 20 ppm of active ingredient, 6 days incubation, liquid culture, absorbance, read-out: efficacy (inhibition of fungal growth). An outline of the steps:
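Spore suspension of C. lindemuthianum in liquid medium exposed to DMSO-solubilized compounds (final DMSO ≤1%) for 6 days. Mycelial growth read by absorbance, with inhibition calculated relative to compound-free control wells.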

Data set [2] has as its system Alternaria alternata. Nature of the data set: Alternaria alternata in vitro cell test. In kind it is cell-based. Particulars: 120 h, 20 ppm of active ingredient, liquid culture, 5 days incubation, spectrometric measurement of mycelium growth, read-out: efficacy (inhibition of fungal growth). The method, boiled down:
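Liquid culture assay in which A. alternata spores in medium received DMSO-solubilized compound (final DMSO ≤1%). After 5 days, mycelium growth was measured spectrometrically. Inhibition was calculated against fungicide-free control wells.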

For data set [3], the system named is Alternaria brassicae. The data set is described as follows: In vivo preventive test on Alternaria brassicae (leaf spot on radish or cabbage). Particulars: 500 ppm of active ingredient, preventive spray on radish or cabbage, evaluated 3 to 4 days after inoculation, read-out: efficacy. An outline of the steps: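 Young radish or cabbage plants were sprayed with compound dissolved in DMSO/acetone/Tween 80 and diluted in water; controls received solvent only. Inoculation by spraying A. brassicae spore suspension 24 h later, then 3–4 days at 20 °C and 100% relative humidity.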

The test system of data set [4] is Sphaerotheca fuliginea. The data set is described as follows: In vivo preventive test on Sphaerotheca fuliginea (powdery mildew on cucurbits). As to conditions: Podosphaera fuliginea, 192 h; 500 ppm of active ingredient; preventive spray on gherkin; evaluated 8 days after inoculation; read-out: efficacy. An outline of the steps: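 Young gherkin plants were sprayed with compound in DMSO/acetone/Tween 80 diluted in water. They were inoculated 24 h later with a spore suspension of Sphaerotheca fuliginea. Plants were then kept for 8 days at 20 °C and 70–80% relative humidity.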

In data set [5] the test system is Botrytis cinerea. The data set is described as follows: In vivo preventive test on Botrytis cinerea (grey mould). Particulars: 500 ppm of active ingredient, preventive spray on gherkin or cabbage, evaluated 4 to 5 days after inoculation, read-out: efficacy. An outline of the steps:
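Young gherkin or cabbage plants were sprayed with compound in DMSO/acetone/Tween 80 diluted in water, then inoculated 24 hours later with a B. cinerea spore suspension. Incubation lasted 4 to 5 days: gherkin at 17° C., 90% relative humidity; cabbage at 20° C., 100% relative humidity.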

Data set [6] deals with Pyrenophora teres. The data set is described as follows: In vivo preventive test on Pyrenophora teres (net blotch on barley). Particulars: 240 h, 500 ppm of active ingredient, preventive spray on barley, evaluated 10 days after inoculation, read-out: efficacy. Here is the method:
B-3. In Vivo Preventive Test on Pyrenophora Teres (Net Blotch on Barley) [table] The active ingredients were made soluble and homogenized in a mixture of Dimethyl sulfoxide/Acetone/Tween® 80 and then diluted in water to the desired concentration. The young plants of barley were treated by spraying the active ingredient prepared as described above. Control plants were treated only with an aqueous solution of Acetone/Dimethyl sulfoxide/Tween® 80. After 24 hours, the plants were contaminated by spraying the leaves with an aqueous suspension of Pyrenophora teres spores. The contaminated barley plants were incubated for 48 hours at 20° C. and at 100% relative humidity and then for 8 days at 20° C. and at 70-80% relative humidity.

Data set [7] in a line: Measurement of Log P values by HPLC on reversed phase columns (EEC directive 79/831 Annex V.A8). The data set is classed as physicochemical. As to conditions: reversed phase HPLC column, method [a]: LC-UV, acidic range, 0.1% formic acid in water and acetonitrile as eluent. An outline of the steps:
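Reversed-phase HPLC with UV detection per EEC 79/831 Annex V.A8, linear 10–95% acetonitrile gradient. Aqueous eluent: 0.1% formic acid (acidic), 0.001 M ammonium acetate (neutral), or 0.1% phosphoric acid (acidic); multiple values in one method joined by "+".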

Data set [8] concerns Botrytis cinerea. Nature of the data set: B-11. Botrytis cinerea in vitro cell test. Particulars: 144 h, 20 ppm of active ingredient, 6 days incubation, liquid culture, absorbance, read-out: efficacy (inhibition of fungal growth). The data set is classed as cell-based. The method, boiled down: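 B. cinerea spores were grown in liquid culture with compound (DMSO ≤1% final). Mycelium growth was measured spectrometrically after 6 days, with inhibition taken as absorbance relative to untreated control wells.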

Data set [9] has as its system Pyrenophora teres. The data set is described as follows: B-10. Pyrenophora teres in vitro cell test. In kind it is cell-based. As to conditions: 144 h, 20 ppm of active ingredient, 6 days incubation, liquid culture, absorbance, read-out: efficacy (inhibition of fungal growth). An outline of the steps:
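Liquid-culture assay on a P. teres spore suspension with compounds added to the medium from DMSO solutions, final DMSO ≤1%. Mycelium growth read spectrometrically after 6 days. Inhibition calculated from absorbance against untreated control wells.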

For the compound `Cc1ccc2c(C(=O)NC[C@H](F)c3ccc(Cl)cc3Cl)c(Oc3cccc(C(F)(F)F)c3)nnc2c1` (racemic) [I-047], the inhibition at 20 ppm in [1] and in data set [2] was 90 to 100% each time. The pest or weed control at 500 ppm in data set [3] lay in the range of 90 to 100%; in data set [4], 90 to 100%; in data set [5], 90 to 100%; in data set [6] it was 80 to 89%. The same compound had a chromatographic logP in [7] of 4.45.
With `Cc1cccc(Oc2nnc3ccccc3c2C(=O)NCC(F)(F)c2ccc(Cl)cc2)c1` [I-014], the inhibition at 20 ppm in data set [1] and in data set [2] was 90 to 100% throughout. Also, the pest or weed control at 500 ppm in data set [3] fell in the range of 90 to 100%; in data set [4], 90 to 100%; in data set [5], 90 to 100%; in data set [6], 70 to 79%. The same compound gave a chromatographic logP in data set [7] of 3.87.
Turning to `Cc1cccc(Oc2nnc3ccccc3c2C(=O)NCC(F)(F)c2ccc(C)cc2C)c1` [I-017], the inhibition at 20 ppm in data set [1] and in data set [2] was 90 to 100% in each case. Also, the pest or weed control at 500 ppm in [3] fell in the range of 90 to 100%; in data set [4] it was 90 to 100%; in data set [5] it was 90 to 100%; in [6], 70 to 79%. In addition, the chromatographic logP in data set [7] was 4.11.
Turning to `Cc1cc(C(F)F)ccc1[C@@H](F)CNC(=O)c1c(Oc2cccc(Cl)c2)nnc2ccccc12` (racemic) [I-049], the inhibition at 20 ppm in [1], in [2] and in data set [8] was 90 to 100% in each case. Further, the pest or weed control at 500 ppm in data set [3] is 90 to 100%; in data set [5], 90 to 100%; in [6], 80 to 89%. Besides, in data set [7], the chromatographic logP is 3.84.
`CCN(CCc1ccccc1)C(=O)c1c(Oc2cccc(C(F)(F)F)c2)nnc2ccccc12` [I-205]: the pest or weed control at 500 ppm was 70 to 79% in data set [4], 80 to 89% in [5] and 80 to 89% in data set [6]. Besides, the chromatographic logP in data set [7] was 4.28.
As to `C=Cc1ccc(C(F)(F)CNC(=O)c2c(Oc3cccc(C(F)(F)F)c3)nnc3ccccc23)c(Cl)c1` [I-064], the inhibition at 20 ppm in data set [1], in data set [2] and in [8] was 90 to 100% each time. The results for the pest or weed control at 500 ppm in data set [3], in data set [5] and in data set [6] were 90 to 100%, 90 to 100% and 80 to 89%, respectively. In data set [7], the chromatographic logP amounted to 4.62.
Consider `Cc1cccc(Oc2nnc3ccccc3c2C(=O)NCC(F)(F)c2ccc(Br)cc2Cl)c1` [I-015], for which the inhibition at 20 ppm in [1] and in data set [2] was 90 to 100% throughout. For the same compound, the pest or weed control at 500 ppm is 90 to 100% in data set [3], 90 to 100% in data set [4], 90 to 100% in data set [5] and 70 to 79% in data set [6]. The compound further yielded a chromatographic logP in [7] of 4.37.
Regarding `Cc1ccc(CCNC(=O)c2c(Oc3cccc(C(F)(F)F)c3)nnc3ccsc23)c(C)c1` [I-231], the results for the pest or weed control at 500 ppm in data set [3], in data set [4] and in data set [6] were 90 to 100%, 90 to 100% and 70 to 79%, respectively. In [7], this compound yielded a chromatographic logP of 4.77. Further, in data set [8], the inhibition at 20 ppm fell in the range of 80 to 89%.
Regarding `Cc1ccc(C(F)(F)CNC(=O)c2c(Oc3cccc(C(F)(F)F)c3)nnc3cnccc23)c(C)c1` [I-162], the inhibition at 20 ppm in data set [1], in data set [2], in data set [9] and in data set [8] was 90 to 100% in each case. Moreover, the pest or weed control at 500 ppm in data set [3] fell in the range of 90 to 100%; in data set [6], 70 to 79%. The chromatographic logP in data set [7] is 4.15.
Take `Cc1ccc(C(F)(F)CNC(=O)c2c(Oc3cccc(C(F)(F)F)c3)nnc3cc(F)ccc23)c(Cl)c1` [I-171]: the inhibition at 20 ppm in data set [1], in data set [2], in [9] and in data set [8] was 90 to 100% throughout. The pest or weed control at 500 ppm in data set [3] fell in the range of 90 to 100%; in [6] it was 70 to 79%. This compound also displayed a chromatographic logP in data set [7] of 4.66.
